Laboratory results: PMC3337405 (Cancer Chemotherapy and Pharmacology, 2012)

What was measured:
[1] = cited from earlier work
[2] = Plasma pharmacokinetics, noncompartmental analysis; settings: human, plasma, 75 mg; for Cmax: mean (SD)
Procedure: Blood samples for PK analysis were collected predose and 0.5, 1, 2, 3, 4, 8, 12, and 24 h post dose on days 1 and 3 at the same time as ECG assessments. […] Noncompartmental analysis (WinNonlin™ version 5.2, Pharsight, Sunnyvale, California) was performed to determine the following PK parameters: C max, T max, minimum (trough) plasma concentration over a dosing interval (C min), and AUC calculated using a trapezoidal method. For moxifloxacin, the AUC from time 0 to the last measurable concentration sampling time was calculated (AUC0–tlast).

healthy volunteers = assay: Concentration–QT linear random-effects model; type: in vivo, human; settings: plasma concentration of the analyte after midostaurin dosing, day 3
From the text: Baseline QTcF was included in the model as a covariate. […] This exploratory analysis was applied to both the change from the time-matched baseline and the change from time-averaged baseline.

For CO[C@@H]1[C@H](N(C)C(=O)c2ccccc2)C[C@H]2O[C@]1(C)n1c3ccccc3c3c4c(c5c6ccccc6n2c5c31)C(=O)N[C@H]4O [CGP52421], the “concentration at steady state relative to midostaurin and CGP62221” value ([1]; daily oral dosing of midostaurin, plasma) is given as “approximately seven”, the half-life ([1]; human participants) is given as “up to 1 month” and the “treatment needed to reach the steady state” value ([1]; midostaurin dosing) is given as 21 to 28 days. The Tmax ([2]; oral, time of peak concentrations post dose, midostaurin dosing, days 1 and 3) was 3 to 4 h, the AUC(0-t) ([2]; po) was 3.51 µg·h/mL and the Cmax ([2]; po, Day 1 (single dose), midostaurin 75 mg oral) was 0.385 µg/mL. For the same molecule, the Cmax ([2]; po, Day 3 (twice daily), midostaurin 75 mg oral) was 1.25 µg/mL, the Tmax ([2]; po, Tmax, median (range), Day 1 (single dose), midostaurin 75 mg oral) was 4 h and the Tmax ([2]; po, Tmax, median (range), Day 3 (twice daily), midostaurin 75 mg oral) was 3.1 h. For the same molecule, the “concentration versus QTcF slope” value (healthy volunteers) was 0.2 and the “concentration versus QTcF slope” value (healthy volunteers; listed as CPG52421) was “either negative or not statistically significant”.
